From article PMC8766476, “Repurposing the Pathogen Box compounds for identification of potent anti-malarials against blood stages of Plasmodium falciparum with PfUCHL3 inhibitory activity” (Scientific Reports, 2022) come the findings set out here.

Like-named read-outs stand apart in the source and are kept apart here.

This experiment deals with T1, PfUCHL3 (Plasmodium falciparum, UniProt Q8IKM8).
T1 construct: gene UCHL3
Put plainly: fluorimetric Ub-AMC deubiquitinase assay with recombinant purified PfUCHL3, dose-response. In kind it is biochemical.

T1 sequence (Q8IKM8 whole entry): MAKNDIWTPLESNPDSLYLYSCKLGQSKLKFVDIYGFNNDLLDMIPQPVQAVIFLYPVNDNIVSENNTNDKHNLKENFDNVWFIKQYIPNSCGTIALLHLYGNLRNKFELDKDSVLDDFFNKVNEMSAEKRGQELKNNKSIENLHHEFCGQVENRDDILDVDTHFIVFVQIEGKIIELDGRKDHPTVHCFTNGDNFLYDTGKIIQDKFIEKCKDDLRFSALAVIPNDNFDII

Usually IC50 stands for the concentration that gives 50% inhibition. For `CC1COC2(CCN(c3nc(=O)c4cc(C(F)(F)F)cc([N+](=O)[O-])c4s3)CC2)O1` (centres unmarked) [compound 1, MMV676603], the IC50 came out at 25.1 ± 1.8 µM.
As to `Cc1cc2nc(NC(=O)C(C)(C)C)nc(Cl)c2n1Cc1ccc(Cl)cc1` [compound 2, MMV688704], the IC50 (read-out: IC50) came to 87.1 ± 1.75 µM.
